{"source": "patent US9352013B2", "about": "“Uses of bremelanotide in therapy for female sexual dysfunction” (Palatin Technologies, Inc., priority 2012, dated 2016)", "assay": "Example 1: ambulatory blood pressure monitoring", "assay_type": "in vivo, human", "settings": "for Pulse: treatment group difference (from placebo) in mean change from single-blind placebo: in bpm (unit assumed); for DBP: treatment group difference (from placebo) in mean change from single-blind placebo / SBP: treatment group difference (from placebo) in mean change from single-blind placebo: in mmHg (unit assumed); for HR-BP Product: treatment group difference (from placebo) in mean change from single-blind placebo: in mmHg·bpm (unit assumed)", "method": "Ambulatory blood pressure monitoring was conducted following both placebo and randomized treatment group in-clinic administrations. Three periods of ambulatory blood pressure monitoring were included, the first period was from before to 24 hours after a single, in-clinic dose of placebo (to establish a baseline); the second and third periods occurred from before to 24 hours after each of 2 single, in-clinic doses of double-blind treatment, administered within 14 days of each other. Blood samples for pharmacokinetic analysis were collected before and at 0.5, 1.0, and 2.0 hours after each in-clinic bremelanotide single-dose treatment (double-blind only), to permit analysis of concentration-response relationships.\nMean changes in blood pressure were characterized in all subjects based on sequential supervised dosing of single-blind subcutaneous placebo and two doses of randomized study drug. The primary analysis for mean changes was the difference between treatment groups in the change from single-blind placebo to randomized drug (Visit 2 vs. Visits 5/7). There were between 86 to 100 subjects in each dose group.\nAlthough there were an increased number of outliers for maximal changes from baseline in systolic blood pressure in drug-treated patients, the duration of these events was quite limited. The interrogation interval during ambulatory blood pressure monitoring assessments of 15 minutes allowed definition of the maximal duration of such excursions. […] The clinical significance of such changes, if any, is small.", "key": {"[1]": {"settings": "0.75 mg SC, interval 0-24 h, V5"}, "[2]": {"settings": "0.75 mg SC, interval 0-24 h, V7"}, "[3]": {"settings": "0.75 mg SC, interval 8-24 h, V5"}, "[4]": {"settings": "0.75 mg SC, interval 8-24 h, V7"}, "[5]": {"settings": "1.25 mg SC, interval 0-24 h, V5"}, "[6]": {"settings": "1.25 mg SC, interval 0-24 h, V7"}}, "note": "Marks after values point to notes of the source that are not given here.", "data": [{"compound": "CCCC[C@H](NC(C)=O)C(=O)N[C@H]1CC(=O)NCCCC[C@@H](C(=O)O)NC(=O)[C@H](Cc2c[nH]c3ccccc23)NC(=O)[C@H](CCCNC(=N)N)NC(=O)[C@@H](Cc2ccccc2)NC(=O)[C@H](Cc2c[nH]cn2)NC1=O", "note": "[bremelanotide, Ac-Nle-cyclo(-Asp-His-D-Phe-Arg-Trp-Lys)-OH]", "values": [{"measurement": "Systolic blood pressure shifts: ΔSBP >10 mmHg, Duration >30 minutes", "setting": "0.75 mg SC", "value": 1}, {"measurement": "Systolic blood pressure shifts: ΔSBP >15 mmHg, Duration >30 minutes", "setting": "0.75 mg SC", "value": 0}, {"measurement": "Pulse: treatment group difference (from placebo) in mean change from single-blind placebo", "setting": "0.75 mg SC, interval 0-4 h, V5", "value": "−5.2*"}, {"measurement": "DBP: treatment group difference (from placebo) in mean change from single-blind placebo", "setting": "0.75 mg SC, interval 0-4 h, V5", "value": 1.5}, {"measurement": "SBP: treatment group difference (from placebo) in mean change from single-blind placebo", "setting": "0.75 mg SC, interval 0-4 h, V5", "value": 1.8}, {"measurement": "HR-BP Product: treatment group difference (from placebo) in mean change from single-blind placebo", "setting": "0.75 mg SC, interval 0-4 h, V5", "value": "−492.8*"}, {"measurement": "Pulse: treatment group difference (from placebo) in mean change from single-blind placebo", "setting": "0.75 mg SC, interval 0-4 h, V7", "value": "−4.8*"}, {"measurement": "DBP: treatment group difference (from placebo) in mean change from single-blind placebo", "setting": "0.75 mg SC, interval 0-4 h, V7", "value": 0.6}, {"measurement": "SBP: treatment group difference (from placebo) in mean change from single-blind placebo", "setting": "0.75 mg SC, interval 0-4 h, V7", "value": 1.1}, {"measurement": "HR-BP Product: treatment group difference (from placebo) in mean change from single-blind placebo", "setting": "0.75 mg SC, interval 0-4 h, V7", "value": "−491.9*"}, {"measurement": "Pulse: treatment group difference (from placebo) in mean change from single-blind placebo", "setting": "[1]", "value": "−2.2*"}, {"measurement": "DBP: treatment group difference (from placebo) in mean change from single-blind placebo", "setting": "[1]", "value": "1.1*"}, {"measurement": "SBP: treatment group difference (from placebo) in mean change from single-blind placebo", "setting": "[1]", "value": 1.1}, {"measurement": "HR-BP Product: treatment group difference (from placebo) in mean change from single-blind placebo", "setting": "[1]", "value": "−187.7"}, {"measurement": "Pulse: treatment group difference (from placebo) in mean change from single-blind placebo", "setting": "[2]", "value": "−1.6"}, {"measurement": "DBP: treatment group difference (from placebo) in mean change from single-blind placebo", "setting": "[2]", "value": "1.3*"}, {"measurement": "SBP: treatment group difference (from placebo) in mean change from single-blind placebo", "setting": "[2]", "value": 1.5}, {"measurement": "HR-BP Product: treatment group difference (from placebo) in mean change from single-blind placebo", "setting": "[2]", "value": "−82.3"}, {"measurement": "Pulse: treatment group difference (from placebo) in mean change from single-blind placebo", "setting": "0.75 mg SC, interval 4-8 h, V5", "value": "−6.2*"}, {"measurement": "DBP: treatment group difference (from placebo) in mean change from single-blind placebo", "setting": "0.75 mg SC, interval 4-8 h, V5", "value": 1.3}, {"measurement": "SBP: treatment group difference (from placebo) in mean change from single-blind placebo", "setting": "0.75 mg SC, interval 4-8 h, V5", "value": 0.9}, {"measurement": "HR-BP Product: treatment group difference (from placebo) in mean change from single-blind placebo", "setting": "0.75 mg SC, interval 4-8 h, V5", "value": "−676.5*"}, {"measurement": "Pulse: treatment group difference (from placebo) in mean change from single-blind placebo", "setting": "0.75 mg SC, interval 4-8 h, V7", "value": "−5.5*"}, {"measurement": "DBP: treatment group difference (from placebo) in mean change from single-blind placebo", "setting": "0.75 mg SC, interval 4-8 h, V7", "value": 1.7}, {"measurement": "SBP: treatment group difference (from placebo) in mean change from single-blind placebo", "setting": "0.75 mg SC, interval 4-8 h, V7", "value": 1.6}, {"measurement": "HR-BP Product: treatment group difference (from placebo) in mean change from single-blind placebo", "setting": "0.75 mg SC, interval 4-8 h, V7", "value": "−503.3*"}, {"measurement": "Pulse: treatment group difference (from placebo) in mean change from single-blind placebo", "setting": "[3]", "value": "−0.4"}, {"measurement": "DBP: treatment group difference (from placebo) in mean change from single-blind placebo", "setting": "[3]", "value": 1.0}, {"measurement": "SBP: treatment group difference (from placebo) in mean change from single-blind placebo", "setting": "[3]", "value": 0.9}, {"measurement": "HR-BP Product: treatment group difference (from placebo) in mean change from single-blind placebo", "setting": "[3]", "value": 5.2}, {"measurement": "Pulse: treatment group difference (from placebo) in mean change from single-blind placebo", "setting": "[4]", "value": 0.1}, {"measurement": "DBP: treatment group difference (from placebo) in mean change from single-blind placebo", "setting": "[4]", "value": "1.3*"}, {"measurement": "SBP: treatment group difference (from placebo) in mean change from single-blind placebo", "setting": "[4]", "value": 1.6}, {"measurement": "HR-BP Product: treatment group difference (from placebo) in mean change from single-blind placebo", "setting": "[4]", "value": 114.9}, {"measurement": "Systolic blood pressure shifts: ΔSBP >10 mmHg, Duration >30 minutes", "setting": "1.25 mg SC", "value": 2}, {"measurement": "Systolic blood pressure shifts: ΔSBP >15 mmHg, Duration >30 minutes", "setting": "1.25 mg SC", "value": 0}, {"measurement": "Pulse: treatment group difference (from placebo) in mean change from single-blind placebo", "setting": "1.25 mg SC, interval 0-4 h, V5", "value": "−5.2*"}, {"measurement": "DBP: treatment group difference (from placebo) in mean change from single-blind placebo", "setting": "1.25 mg SC, interval 0-4 h, V5", "value": "3.0*"}, {"measurement": "SBP: treatment group difference (from placebo) in mean change from single-blind placebo", "setting": "1.25 mg SC, interval 0-4 h, V5", "value": "2.4*"}, {"measurement": "HR-BP Product: treatment group difference (from placebo) in mean change from single-blind placebo", "setting": "1.25 mg SC, interval 0-4 h, V5", "value": "−436.4*"}, {"measurement": "Pulse: treatment group difference (from placebo) in mean change from single-blind placebo", "setting": "1.25 mg SC, interval 0-4 h, V7", "value": "−6.1*"}, {"measurement": "DBP: treatment group difference (from placebo) in mean change from single-blind placebo", "setting": "1.25 mg SC, interval 0-4 h, V7", "value": "2.2*"}, {"measurement": "SBP: treatment group difference (from placebo) in mean change from single-blind placebo", "setting": "1.25 mg SC, interval 0-4 h, V7", "value": "2.1*"}, {"measurement": "HR-BP Product: treatment group difference (from placebo) in mean change from single-blind placebo", "setting": "1.25 mg SC, interval 0-4 h, V7", "value": "−583.3*"}, {"measurement": "Pulse: treatment group difference (from placebo) in mean change from single-blind placebo", "setting": "[5]", "value": "−2.9*"}, {"measurement": "DBP: treatment group difference (from placebo) in mean change from single-blind placebo", "setting": "[5]", "value": "1.9*"}, {"measurement": "SBP: treatment group difference (from placebo) in mean change from single-blind placebo", "setting": "[5]", "value": 1.1}, {"measurement": "HR-BP Product: treatment group difference (from placebo) in mean change from single-blind placebo", "setting": "[5]", "value": "−265.9"}, {"measurement": "Pulse: treatment group difference (from placebo) in mean change from single-blind placebo", "setting": "[6]", "value": "−2.6*"}, {"measurement": "DBP: treatment group difference (from placebo) in mean change from single-blind placebo", "setting": "[6]", "value": "1.7*"}, {"measurement": "SBP: treatment group difference (from placebo) in mean change from single-blind placebo", "setting": "[6]", "value": "1.6*"}, {"measurement": "HR-BP Product: treatment group difference (from placebo) in mean change from single-blind placebo", "setting": "[6]", "value": "−206.5"}, {"measurement": "Pulse: treatment group difference (from placebo) in mean change from single-blind placebo", "setting": "1.25 mg SC, interval 4-8 h, V5", "value": "−6.1*"}]}]}
